{"source": "patent US20250339409A1", "about": "“USES OF PAN BET INHIBITORS” (VYNE THERAPEUTICS INC., priority 2021, published 2025)", "key": {"[1]": {"experiment": "Chemical and physical stability of formulations (HPLC, polarized light microscopy)", "type": "physicochemical", "conditions": "3 m at 25° C.", "method": "For Polarized Light Microscopy evaluation, the samples of the formulations in petrolatum are heated to 55° C. to melt most of the petrolatum crystals and make visible crystals of API. The API crystals are measured and photomicrographs are taken.\nThe microscopy samples of API are prepared by dispersing some (unmeasured amount) of API powder in a drop of mineral oil. The dispersion is done by a spatula. The concentration of API in mineral oil is unknown.\nThe stability of prepared formulations was assessed by HPLC testing of samples of two formulations, prepared with API from two different sources. […] The area % of the main peak in the samples after temperature exposure was compared to area % of the main peak in initial samples of the same batches and in the corresponding APIs. The samples exposed to stability challenge were also evaluated for presence of new peaks, not observed in API or in initial samples."}, "[2]": {"test_system": "CXCL10, IL17α, IL22, IL36γ, CCL20, SerpinB4 gene expression in Th17 stimulated human skin", "experiment": "Th17 stimulated human skin explants, RT-qPCR of biomarkers", "type": "cell-based", "conditions": "for inhibition at 10 µM: Homo sapiens, calculated to Th17 stimulated control, three skin donors", "text": "Human skin biopsy tissue was stimulated to induce a Th17 immuno-phenotype using a method derived from Feghali-Bostwick et al. Induction of a Th17 phenotype in human skin—a mimic of dermal inflammatory diseases, Methods and Protocols, 2, 45 (2019). The pharmacodynamic assay described therein involves a similar paradigm to elicit a Th2 response and is used to evaluate the therapeutic potential of the active compounds (e.g., BETi1; and\nFreshly excised healthy human skin tissue from abdominoplasties is defatted, cleaned and sectioned into 7 mm biopsies. The biopsies are placed in Transwell® inserts with the epidermis apical and exposed to air and the dermis submerged in media in the basal chamber. The biopsies are pre-treated overnight at 37° C., 5% CO2 with different compounds and controls added to the media in the basal chamber.\nThe next day, contents of the basal chamber is replaced with fresh media containing the test compound (listed below) and a stimulation cocktail for either Th2 inflammation (proprietary of service provider cocktail) or Th17 inflammation (mix of antibodies against CD3, CD28, IL-4, IFNγ and recombinant IL-1β, IL-6, IL-21, TGF-β). The biopsies are incubated at 37° C., 5% CO2 for a further 24 hrs.\nA list of all the treatments is provided below: • 1. Untreated control (for both stimulations) • 2. Th2 stimulated control • 3. Th17 stimulated control • 4. Th2+BETia at 0.01, 0.04, 0.16, 0.63, 2.50, and 10 μM • 5. Th2+BETi1 at 0.01, 0.04, 0.16, 0.63, 2.50, and 10 μM • 6. Th2+Ruxolitinib at 0.01, 0.04, 0.16, 0.63, 2.50, and 10 μM • 7. Th2+betamethasone valerate 210 μM (equivalent to 0.01%) • 8. Th17+BETia at 10 μM • 9. Th17+BETi1 at 10 μM • 10. Th17+Ruxolitinib at 10 μM • 11. Th17+betamethasone valerate 210 μM (equivalent to 0.01%)\nAfter harvesting, the biopsies are cut in half, and one half is homogenized and used for RNA extraction by standard methods and inflammatory pathways is assessed by RT-qPCR. The ability of BETi1 or BETia to inhibit the activity of up to six biomarkers per stimulation is reported as percent activity calculated to stimulated control and fold change in gene expression calculated to untreated control with respect to Th2 (IL4, IL13, IL31, CCL17, CCL26, CCL2) and Th17 (CXCL10, IL17α, IL22, IL36γ, CCL20, SerpinB4). Statistical analysis is performed on data sets from all 3 donors combined and compares the percent inhibition of each biomarker by each treatment calculated to its respective vehicle.\nqPCR values were calculated using the relative quantification approach outlined by Livak, et al (2001) (Section 9, Reference 2). The Ct values (threshold cycle) defined as the fractional cycle number at which the amount of amplified target reaches a fixed threshold, were normalised to the Ct value of an internal biomarker or ‘housekeeping gene’ (GAPDH). The higher limit of detection was set at a Ct value of 40, and any target having not reached Ct by 40 cycles was set to this value. The delta Ct values (dt(Ct)) refers to the Ct of the gene of interest minus the Ct of the internal biomarker. The ddt(Ct) is the dt(Ct) value of the gene minus the average dt(Ct) value of the untreated samples. The ddt(Ct) is converted to power by the equation; =power(2,dt(Ct)). Fold change was calculated as ratio of the power of the gene of interest divided by the average power of the untreated samples. This normalizes the untreated samplers to a value of 1. For the comparison of multiple skin donors, the stimulated samples were normalized to 100% maximum activity (such to normalize variability between different skin donors). Percent activity was calculated as the percent increase or decrease in stimulation compared to the stimulated samples set at 100% maximum activity. Percent change was calculated as: Inhibition=(100−(avg % activity/stimulated)*100). Statistical analysis was performed using One-way ANOVA with Dunnett's Multiple Comparisons (non parametric). […]"}}, "note": "Where two headings read alike, the source gives them in different places."}
{"smiles": "Cn1cc(-c2cccc(O)c2Oc2ccccc2)c2cc[nH]c2c1=O", "note": "[BETi1]", "values": [{"measurement": "degradation in compositions comprising suspended BETi1", "setting": "[1]", "result": "no degradation of BETi1 being observed"}, {"measurement": "inhibition at 10 µM", "setting": "[2]; read-out: % inhibition CXCL10", "result": 95, "unit": "%"}, {"measurement": "inhibition at 10 µM", "setting": "[2]; read-out: % inhibition IL17α", "result": 99.5, "unit": "%"}, {"measurement": "inhibition at 10 µM", "setting": "[2]; read-out: % inhibition IL36γ", "result": 95, "unit": "%"}, {"measurement": "inhibition of IL-17, IL-36 and CXCL10 release relative to vehicle control", "setting": "[2]; Th17-stimulated human skin tissue", "result": "greater than 95%"}]}
